Assay results from patent publication US6495376B1, “Methods and compositions for regulating protein-protein interactions” (Beth Israel Deaconess Medical Center, priority 1999, dated 2002).
Like-named read-outs stand apart in the source and are kept apart here.

Key:
[1] = target: T1, Pin1^R14A (Homo sapiens, UniProt Q13526, R14A); experiment: ELISA peptide binding to Pin1^R14A; settings: mutant Pin1^R14A
T1 construct: mitotic HeLa cell extracts incubated with the entire Pin1 protein or its WW-domain; GST or His (N); made in house

[2] = target: T2, Pin1^Y23A (Homo sapiens, UniProt Q13526, Y23A); experiment: ELISA peptide binding to Pin1^Y23A; settings: mutant Pin1^Y23A
T2 construct: mitotic HeLa cell extracts incubated with the entire Pin1 protein or its WW-domain; GST or His (N); made in house

[3] = target: Pin1 (Homo sapiens, UniProt Q13526); experiment: ELISA peptide binding to Pin1; settings: Pin1
[4] = target: WFYpSPFLE (Pintide); experiment: Fluorescence anisotropy (polarization) binding to fluorescein-labeled phosphorylated Pintide analogue; settings: for Kd for Pintide (μM): fluorescein labeled Pintide, high affinity pSer-binding site in the WW-domain
Excerpt: To determine the affinity of Pin1, and its WW or PPIase domain for phosphopeptides, peptides were labeled with fluorescein and their interactions with Pin1 measured using quantitative fluorescence anisotrophy. To prevent nonspecific labeling, a Pintide analogue (WFYpSPFLE) SEQ ID NO: 9 was used, which binds Pin1 with a high affinity based on the peptide library screen as described by (Lu, K. P. et al., U.S. Ser. No. 60/058,164 (1997), the teachings of which are incorporated herein in their entirety.
(§1) Pintide and its nonphosphorylated counterpart were synthesized and incubated with GST-Pin1 or the GST-WW-domain of Pin1 in a binding buffer, using established procedures (Shen, M. et al., Genes & Dev 12:706 (1998)). After a 1 hr incubation, mitotic HeLa cell extracts were added and subjected to GST pull down experiments, followed by immunoblotting analysis using the MPM-2 antibody. To obtain semi-quantitative data, films of immunoblots were scanned at the region of 55 kDa, the major Pin1-binding protein, and data analyzed using ImageQuan (ScanJet II CX). The peptide binding constants were measured using a fluorescence polarization assay (Jiskoot, W. et al., Anal Biochem 196:421 (1991)). Peptides were fluorescein labeled at the N-terminus using the Fluorescein Amine Labeling Kit (Pan Vera Corp.) and purified by TLC according to the manufacturer's […]. To prevent nonspecific labeling, a Pintide analogue (WFYpSPFLE) SEQ ID NO: 8 and the nonphosphorylated control were used. Various concentrations of Pin1 and its mutant proteins were incubated with 0.1 μM of the labeled peptides in a binding buffer containing 50 mM HEPES, pH 7.4, 100 mM NaCl, 2% glycerol. Fluorescence polarization values were obtained using a Pan Vera Beacon 2000 system, as described by the manufacturer.

[5] = target: WFYSPFLE; experiment: Fluorescence anisotropy binding to fluorescein-labeled nonphosphorylated control peptide; settings: GST-WW-domains, N.B., not binding detected
[6] = target: EQPLpTPVTDL (Cdc25 Peptide); experiment: Fluorescence anisotropy binding to fluorescein-labeled phosphorylated Cdc25 peptide; settings: GST-WW-domains
[7] = target: […] (Cdc25 Peptide, nonphosphorylated); experiment: GST-WW-domain incubated with peptide on a membrane, immunoblotting with GST antibody; format: binding
[8] = tested on: MPM-2 antigens (mitotic phosphoproteins) of mitotic HeLa cell extracts; experiment: GST pulldown from mitotic HeLa cell extracts, MPM-2 immunoblotting (phosphoprotein-binding activity); settings: for binding to mitotic phosphoproteins / MPM-2 antigens (in words): mitotic HeLa cell extracts; for Phosphoprotein binding activity: GST-fusion proteins with mitotic extracts, MPM2 antibody
Experimental: GST-fusion proteins containing the WW-domain, PPIase-domain or the entire Pin 1 protein were prepared and incubated with interphase (G1/S arrested; Control) or dividing (M phase) HeLa cell extracts using well-known procedures (Lu, K. P., et al., Nature 380:544 (1996); (Shen, M., et al., Genes & Devl. 12:706 (1998)). Briefly, HeLa cells were arrested at the G1/S boundary or mitosis by incubation with thymidine and aphidicolin or nocodazole for 16 h, respectively. The cells were lysed and supernatants incubated with 10 μl of agarose beads containing GST-Pin1; GST-WW-domain of Pin1; GST-PPIase domain of Pin1; or control GST for 2 h at 4° C. The phosphorylated precipitated proteins were washed 5 times in buffer containing 1% Triton X-100 before subjecting to immunoblotting analysis using MPM-2 antibody, as described previously (Yaffe, M. B. et al., Science 278:1957 (1997); Schukowski, et al., Biochemistry 37:5566 (1998); Shen, M. et al., Genes & Dev 12:706 (1998)). MPM-2 recognizes a subset of mitotic phosphoproteins including Pin1-binding proteins such as cdc25.
as §1
To examine the effect of Pin1 phosphorylation on Pin1 binding to ligands, Pin1 and Pin1 mutant proteins were incubated with the catalytic subunit of PKA and PKC (a mixture of α, β and γ, UBI) in a kinase reaction buffer containing 500 μM cold ATP at 30° C. for 15 min (Lu, K. P. et al., Anal. Biochem. 196:421 (1991)). The reactions were stopped by adding SDS sample buffer and reaction products separated on SDS-gels, followed by autoradiography. Pin1 proteins were isolated and used to bind MPM-2 antigens from mitotic extracts from HeLa cells, as previously described (Shen, M., et al., Genes & Dev 12:706 (1998)). Experiments were also performed with PKA and PKC, casein kinase, cyclin B/Cdc2 and SRPK1 kinases.

[9] = tested on: peptide substrate; experiment: PPIase activity assay with peptide substrate; format: biochemical; settings: relative to wild-type protein defined as 100%
[10] = tested on: temperature-sensitive ptf1 yeast mutant (YPM2); experiment: Rescue of temperature-sensitive ptf1 yeast mutant (in vivo function); format: cell-based; settings: YPM2 cells, restrictive temperature
Experimental: Given the essential role of the WW-domain in conferring Pin1-binding specificity in vitro, a critical question is whether this domain is important in vivo. To address this question, experiments using the PIN1 yeast homologue, ESS1/PTF1 were performed. ESS1/PTF1 is essential for cell growth and human Pin1 can carry out this essential function when transfected into yeast cells (Lu, K. P. et al., Nature 380:544 (1996); Hanes, S. D. et al., Yeast 5:55 (1989); Hani, J. et al., FEBS Lett. 365:198 (1995)). A temperature-sensitive ptf1 mutant strain, YPM2, grows at the permissive temperature (23° C.), but not at the restrictive temperature (30° C.) (Hanes, S. D. et al., Yeast 5:55 (1989); Hani, J. et al., FEBS Lett. 365:198 (1995)). This phenotype is completely rescued by a 1.5 kb PTF1 genomic fragment, which also contains the promoter and the 3′ processing sequence (FIG. 3). To insure that all human Pin1 proteins were expressed at physiological levels under normal regulation, the coding sequence of the fully functional ESS1/PTF1 gene in a Yepvector was replaced with the coding sequence of the human PIN1 (or Pin1 mutant) cDNA (FIG. 3) and transformed into a temperature-sensitive ptf1 strain. Transformants were selected on minimal media minus Leu at the permissive temperature (23° C.) and protein expression was detected by immunoblotting analysis using 12CA5 monoclonal antibody specific for the HA epitope tag inserted at the N-terminus. […] Those strains expressing similar levels of Pin1 and Pin1 mutants were grown at permissive and nonpermissive temperature.

[11] = tested on: tau-promoted MT assembly; experiment: Microtubule assembly light-scattering assay (turbidity at 350 nm); format: biochemical; settings: 0.05 mg/ml protein, 0.05 mg/ml tau
Experimental: The effect of Pin1 on the ability of phosphorylated tau to promote MT assembly was determined using light-scattering assays (Bramblett, G. T. et al., Neuron 10:1089-1099(1993); Alonso, A. C. et al., Proc Natl Acad Sci USA 91:5562-5566 (1994); Busciglio, J. et al., Neuron 14:879-888 (1995)). Briefly, MTs were assembled from phosphocellulose purified bovine tubulin (Cytoskeleton, Inc) and stabilized by Taxol. The nonphosphorylated or Cdc2 phosphorylated recombinant tau (0.1 mg/ml) was incubated with Pin1 (0.1 mg/ml) at 35° C. for 5 min before adding to the MTs. Bound tau was isolated by centrifugation (50,000×g) at 25° C. for 20 min, followed by immunoblotting analysis using CP27 and Pin1 antibodies. The ability of tau to promote MT assembly was determined using well established light-scattering assays. Briefly, the assembly of MTs was initiated by incubating tubulin (2 mg/ml) with or without tau (0.05 mg/ml) in 80 mM PIPES, pH 6.8, 1 mM EGTA, 1 mM MgCl2, 1 mM GTP, 20% glycerol at 35° C. for 2 min. The mixture was then transferred to a 100 μl cuvet and the rate of the MT assembly was monitored at room temperature using the turbidity increase at 350 nm. To examine the effect of Pin1, Pin1 or its mutant (0.05 mg/ml) was pre-incubated with tau or Cdc2 phosphorylated tau (0.05 mg/ml) at 35° C. for 5 min before the MT assembly assays.

[12] = low affinity binding site, read-out: WFYpSPFLE Kd(μM) Low affinity

T1 sequence (Q13526 whole entry R14A): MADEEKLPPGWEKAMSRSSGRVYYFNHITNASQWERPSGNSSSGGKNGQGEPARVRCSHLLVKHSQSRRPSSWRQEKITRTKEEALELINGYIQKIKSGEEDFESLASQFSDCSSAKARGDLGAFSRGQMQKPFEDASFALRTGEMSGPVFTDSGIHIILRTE
Chain of Pin1 (Q13526 whole entry): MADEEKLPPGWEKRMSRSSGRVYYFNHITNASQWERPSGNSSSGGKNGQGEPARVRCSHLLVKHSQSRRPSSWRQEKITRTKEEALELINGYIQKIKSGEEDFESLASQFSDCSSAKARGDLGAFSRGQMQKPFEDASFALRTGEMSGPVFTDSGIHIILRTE
T2 sequence (Q13526 whole entry Y23A): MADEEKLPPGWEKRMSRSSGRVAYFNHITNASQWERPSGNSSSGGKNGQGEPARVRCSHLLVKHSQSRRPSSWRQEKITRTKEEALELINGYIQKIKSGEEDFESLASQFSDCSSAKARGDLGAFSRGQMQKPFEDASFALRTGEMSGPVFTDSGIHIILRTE
Chain of tau-promoted MT assembly (P10636 45-219 isoform P10636-2 limits assumed): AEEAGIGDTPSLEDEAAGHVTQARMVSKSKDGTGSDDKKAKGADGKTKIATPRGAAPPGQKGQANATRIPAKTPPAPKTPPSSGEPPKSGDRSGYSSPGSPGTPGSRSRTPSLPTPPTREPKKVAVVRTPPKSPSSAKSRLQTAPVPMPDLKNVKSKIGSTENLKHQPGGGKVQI

Row | Compound | Binding (OD@405 nm), tau peptide [1] [OD@405 nm] | Binding (OD@405 nm), tau peptide [2] [OD@405 nm] | Binding (OD@405 nm), tau peptides [3] [OD@405 nm] | Kd ([4]; GST-WW-domains, fluorescein-labeled peptide, average of three independent experiments, read-out: Kd (μM) Pintide WFYpSPFLE) [µM] | Kd (μM) Pintide nonphosphorylated WFYSPFLE [5] | Kd (μM) Pintide nonphosphorylated WFYSPFLE ([5]; listed as WW-domain of Nedd4) | Kd [6] [µM] | Kd (μM) Cdc25 Peptide EQPLTPVTDL [7] | binding to mitotic phosphoproteins / MPM-2 antigens (in words) [8] | WFYpSPFLE Kd(μM) High affinity ([4]; high affinity binding site) | Kd [4, 12] [µM] | Phosphoprotein binding activity [8] | PPlase Activity (%) [9] [%] | complementation of temperature-sensitive ptf1 phenotype (in words) [10] | Kd for Pintide (μM) [4] | effect on ability of Cdc2 phosphorylated tau to promote MT assembly [11]
1 | CC(C)[C@H](NC(=O)[C@H](C)NC(=O)[C@@H](NC(=O)[C@@H](N)CCCCN)C(C)C)C(=O)N[C@H](C(=O)N[C@@H](CCCNC(=N)N)C(=O)N[C@H](C(=O)N1CCC[C@H]1C(=O)N1CCC[C@H]1C(=O)N[C@@H](CCCCN)C(=O)N[C@@H](CO)C(=O)N1CCC[C@H]1C(=O)N[C@@H](CO)C(=O)O)[C@@H](C)OP(=O)(O)O)C(C)C [pT-231] | 1.30 | 0.00 | 1.46 |  |  |  |  |  |  |  |  |  |  |  |  | 
2 | Nedd4 WW-domain: GST-WW-domain of ubiquitin ligase Nedd4; text ties Table 1 to WW-domain-2 |  |  |  | 10 | N.B. | did not bind | 20 | N.B.* | bound only a few MPM-2 antigens |  |  |  |  |  |  | 
3 | Pin1^S16E: Pin1 with Ser-16 mutated to Glu |  |  |  |  |  |  |  |  | failed to bind mitotic phosphoproteins | no high affinity-binding site | 10.5 | − | 95 | abolish the ability of Pin1 to support cell growth |  | 
4 | Pin1^W34A: Pin1 with single Ala point mutation of Trp-34 in the WW-domain |  |  |  |  |  |  |  |  | completely abolished |  | 14 | − | 94 | abolish the ability of Pin1 to support cell growth | N.B. | 
5 | Pin1^Y23A: Pin1 with single Ala point mutation of Tyr-23 in the WW-domain |  |  |  |  |  |  |  |  | completely abolished |  | 13.5 | − | 85 | abolish the ability of Pin1 to support cell growth | N.B. | did not have any effect
